Assay results reported in US20040076974A1, “Liver necrosis predictive genes” (priority 2002, published 2004).
Several values for one entry are separate records, joined by “and”; a condition that tells them apart may be missing. Identical values can stand only once. Like-named read-outs stand apart in the source and are kept apart here.

How the values were obtained:
[1] = test system: Sprague Dawley rats; conditions: rat; for Liver Necrosis / Score (histopathology liver necrosis severity score): intraperitoneal; for Liver Necrosis: 72 hours after treatment; for Score (histopathology liver necrosis severity score): 72 hours, 1 = not remarkable, 2 and higher increasing severity
Method in brief: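 Toxicity calls (necrosis present or absent at 72 h) and histopathology scores were correlated with tissue gene expression from Crl:CD Sprague Dawley rats. Animals, usually 3 treated with compound by i.p. route and 3 given vehicle, were killed at 6, 24 or 72 h and tissues frozen immediately in liquid nitrogen.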

[2] = test system: toxicologically relevant rat genes (rat CT array)
[3] = 24 h, dose 20, ratio treatment/control
[4] = 24 h, dose 20, ratio treatment/control, listed as PHEN

NNc1ccccc1 [phenylhydrazine]
Liver Toxicity Necrosis Classification ([1]; in vivo): no | Liver Necrosis ([1]; dose 20 mg/kg): no | Score (histopathology liver necrosis severity score) ([1]; dose 20 mg/kg): 1 | Liver Necrosis ([1]; dose 80 mg/kg): no | Score (histopathology liver necrosis severity score) ([1]; dose 80 mg/kg): 1 | Aflatoxin B1 aldehyde reductase ([2]; 24 h): 0.6558 and 0.8284 | Bax (alpha) [2, 3]: 1.114 | Proliferating cell nuclear antigen gene [2, 3]: 0.9203 | 3-hydroxyisobutyrate dehydrogenase [2, 4]: 0.9143 and 0.9803 | 14-3-3 zeta [2, 4]: 1.282 and 1.371 | 60S ribosomal protein L6 [2, 4]: 0.8081 and 0.8097 | ATPase inhibitor (rat mitochondrial IF1 protein) [2, 4]: 0.5186 and 0.4781 | Alpha 1 - inhibitor III [2, 4]: 0.5075 and 0.4307 | Alpha-2-macroglobulin [2, 4]: 0.5649 and 0.479 | Bax (alpha) [2, 4]: 1.115 | Beta-actin [2, 4]: 1.318 and 1.347 | Calpactin I heavy chain [2, 4]: 1.093 and 1.232 | Carbamyl phosphate synthetase I [2, 4]: 0.8997 and 0.8454 | Carbonic anhydrase III [2, 4]: 2.069 and 2.604 | Carbonyl reductase [2, 4]: 1.013 and 1.035 | Cathepsin L, sequence 2 [2, 4]: 1.124 | Cofilin [2, 4]: 1.075 and 0.9686 | Cyclin G [2, 4]: 1.06 and 1.18 | DNA polymerase beta [2, 4]: 0.6488 and 0.5275 | Dynamin-1 (D100) [2, 4]: 0.9853 and 0.8394 | Endogenous retroviral sequence, 5′ and 3′ LTR [2, 4]: 1.197 and 1.103 | Enolase alpha [2, 4]: 0.7101 and 0.7241 | Epidermal growth factor [2, 4]: 0.7579 and 0.6975 | Equilbrative nitrobenzylthioinosine-sensitive nucleoside transporter [2, 4]: 0.6046 and 0.5693 | Extracellular-signal-regulated kinase 1 [2, 4]: 1.377 and 1.805 | Fas antigen [2, 4]: 1.2 and 1.204 | Gadd45 [2, 4]: 1.142 and 1.49 | Gadd153 [2, 4]: 1.087 and 1.085 | Gamma-actin, cytoplasmic [2, 4]: 0.7836 and 0.7811 | Glucose-regulated protein 78 [2, 4]: 0.8506 and 0.7386 | Heme oxygenase [2, 4]: 1.498 and 1.908 | Hepatic lipase [2, 4]: 0.5441 and 0.4993 | ID-1 [2, 4]: 1.157 and 1.321 | IgE binding protein [2, 4]: 1.098 and 1.166 | IkB-a [2, 4]: 0.8328 and 0.7684 | Insulin-like growth factor I [2, 4]: 0.8551 and 0.7944 | Insulin-like growth factor binding protein 1 [2, 4]: 1.056 and 0.9665 | Insulin-like growth factor binding protein 3 [2, 4]: 0.8807 and 0.8119 | Integrin beta1 [2, 4]: 1.12 | L-gulono-gamma-lactone oxidase [2, 4]: 1.301 and 1.543 | Liver fatty acid binding protein [2, 4]: 0.6905 and 0.5494 | MAP kinase kinase [2, 4]: 1.023 and 1.164 | Macrophage inflammatory protein-2 alpha [2, 4]: 1.132 and 1.347 | Matrin F/G [2, 4]: 1.071 and 0.9981 | Matrix metalloproteinase-1 [2, 4]: 1.581 and 1.897 | Melanoma-associated antigen ME491 [2, 4]: 0.9841 | Monocyte chemotactic protein receptor (CCR2) [2, 4]: 1.3 and 1.499 | Multidrug resistant protein-2 [2, 4]: 1.286 and 1.334 | N-hydroxy-2-acetylaminofluorene sulfotransferase (ST1C1) [2, 4]: 0.5527 and 0.5091 | Nucleoside diphosphate kinase beta isoform [2, 4]: 1.1 | Organic anion transporter 3 [2, 4]: 1.058 | Organic cation transporter 3 [2, 4]: 0.9117 and 0.8387 | Ornithine decarboxylase [2, 4]: 1.479 and 1.694 | PAR interacting protein [2, 4]: 0.9791 and 0.9269 | Phase-1 RCT 252 [2, 4]: 0.7562 | Phase-1 RCT-15 [2, 4]: 3.553 and 2.982 | Phase-1 RCT-39 [2, 4]: 0.9896 | Phase-1 RCT-49 [2, 4]: 0.869 and 0.8084 | Phase-1 RCT-50 [2, 4]: 1.203 | Phase-1 RCT-68 [2, 4]: 1.203 | Phase-1 RCT-78 [2, 4]: 1.292 | Phase-1 RCT-83 [2, 4]: 0.5669 and 0.5525 | Phase-1 RCT-88 [2, 4]: 2.1 | Phase-1 RCT-89 [2, 4]: 0.8262 | Phase-1 RCT-92 [2, 4]: 2.107 | Phase-1 RCT-102 [2, 4]: 1.096 | Phase-1 RCT-137 [2, 4]: 0.4276 and 0.4239 | Phase-1 RCT-144 [2, 4]: 0.8929 | Phase-1 RCT-152 [2, 4]: 0.7359 and 0.7085 | Phase-1 RCT-168 [2, 4]: 0.7781 | Phase-1 RCT-181 [2, 4]: 1.504 | Phase-1 RCT-182 [2, 4]: 0.6963 and 0.8836 | Phase-1 RCT-189 [2, 4]: 0.7721 and 0.6053 | Phase-1 RCT-191 [2, 4]: 0.6314 and 0.7152 | Phase-1 RCT-192 [2, 4]: 0.9295 | Phase-1 RCT-225 [2, 4]: 1 | Phase-1 RCT-264 [2, 4]: 0.5562 and 0.6031 | Phase-1 RCT-270 [2, 4]: 0.728 | Phase-1 RCT-271 [2, 4]: 1.199 | Phase-1 RCT-288 [2, 4]: 0.8205 and 0.8069 | Phase-1 RCT-295 [2, 4]: 1.57 | Proliferating cell nuclear antigen gene [2, 4]: 1.089 | Ribosomal protein L13A [2, 4]: 1.024 | Ribosomal protein S8 [2, 4]: 0.7171 and 0.6731 | Ribosomal protein S17 [2, 4]: 0.7324 and 0.6158 | Senescence marker protein-30 [2, 4]: 0.7313 and 0.841 | Sodium/bile acid cotransporter [2, 4]: 0.6926 and 0.7429 | Superoxide dismutase Mn [2, 4]: 1.092 and 1.114 | Thymosin beta-10 [2, 4]: 0.7195 and 0.7559 | Transthyretin [2, 4]: 0.4631 and 0.4873 | Ubiquitin conjugating enzyme (RAD 6 homologue) [2, 4]: 0.7763 and 0.6535 | Uncoupling protein 2 [2, 4]: 0.9638 and 0.9416 | Zinc finger protein [2, 4]: 0.8961 and 0.8505 | c-jun [2, 4]: 1.14 and 1.384 | c-myc [2, 4]: 1.235 and 1.141 | p53 [2, 4]: 1.067 and 1.196 | {Ribosomal protein L6} [2, 4]: 1.368 and 1.181 | Paraoxonase 1 ([2]; rat, in vivo): 0.4982 and 0.4752
